Measured values: ChEMBL document CHEMBL5303573, “Mapping human microbiome drug metabolism by gut bacteria and their genes” (Nature, 2019)

Experiments:
[1] = The drug is tested on Bacteroides fragilis strain: ATCC43859 for biotransformation. The drug concentrations were measured before and after a 12-h incubation by liquid-chromatography-coupled mass spectrometry (LC–MS); conditions: 2 µM
[2] = The drug is tested on Subdoligranulum variabile strain: DSM15176 for biotransformation. The drug concentrations were measured before and after a 12-h incubation by liquid-chromatography-coupled mass spectrometry (LC–MS); conditions: 2 µM
[3] = The drug is tested on Bacteroides finegoldii strain: DSM17565 for biotransformation. The drug concentrations were measured before and after a 12-h incubation by liquid-chromatography-coupled mass spectrometry (LC–MS); conditions: 2 µM
[4] = The drug is tested on Bacteroides pectinophilus strain: ATCC43243 for biotransformation. The drug concentrations were measured before and after a 12-h incubation by liquid-chromatography-coupled mass spectrometry (LC–MS); conditions: 2 µM
[5] = akkermansia muciniphila, 12 h, 2 µM
Description: The drug is tested on Akkermansia muciniphila strain: ATCC BAA-835 for biotransformation. The drug concentrations were measured before and after a 12-h incubation by liquid-chromatography-coupled mass spectrometry (LC–MS)

[6] = The drug is tested on Eubacterium ventriosum strain: ATCC27560 for biotransformation. The drug concentrations were measured before and after a 12-h incubation by liquid-chromatography-coupled mass spectrometry (LC–MS); type: ADME; parameters: dose 2 uM, timepoint 0 vs 12 hours; conditions: 2 µM
[7] = The drug is tested on Providencia stuartii strain: ATCC25827 for biotransformation. The drug concentrations were measured before and after a 12-h incubation by liquid-chromatography-coupled mass spectrometry (LC–MS); conditions: 2 µM
[8] = segatella copri, 12 h, 2 µM
Description: The drug is tested on Prevotella copri strain: DSM18205 for biotransformation. The drug concentrations were measured before and after a 12-h incubation by liquid-chromatography-coupled mass spectrometry (LC–MS)

[9] = bacteroides thetaiotaomicron, 12 h, 2 µM
Description: The drug is tested on Bacteroides thetaiotaomicron strain: 7330 for biotransformation. The drug concentrations were measured before and after a 12-h incubation by liquid-chromatography-coupled mass spectrometry (LC–MS)

[10] = bacteroides thetaiotaomicron, 12 h, 2 µM; remark: listed apart in the source
Description: The drug is tested on Bacteroides thetaiotaomicron strain: 3731 for biotransformation. The drug concentrations were measured before and after a 12-h incubation by liquid-chromatography-coupled mass spectrometry (LC–MS)

[11] = The drug is tested on Clostridium ramosum strain: DSM1402 for biotransformation. The drug concentrations were measured before and after a 12-h incubation by liquid-chromatography-coupled mass spectrometry (LC–MS); conditions: thomasclavelia ramosa, 2 µM
[12] = The drug is tested on Bacteroides xylanisolvens strain: DSM18836 for biotransformation. The drug concentrations were measured before and after a 12-h incubation by liquid-chromatography-coupled mass spectrometry (LC–MS); conditions: 2 µM
[13] = The drug is tested on Coprococcus comes strain: ATCC27758 for biotransformation. The drug concentrations were measured before and after a 12-h incubation by liquid-chromatography-coupled mass spectrometry (LC–MS); type: ADME; parameters: dose 2 uM, timepoint 0 vs 12 hours; conditions: 2 µM
[14] = bacteroides fragilis, 12 h, 2 µM
Description: The drug is tested on Bacteroides fragilis strain: 3397 (T10) for biotransformation. The drug concentrations were measured before and after a 12-h incubation by liquid-chromatography-coupled mass spectrometry (LC–MS)

[15] = The drug is tested on Blautia luti strain: DSM14534 for biotransformation. The drug concentrations were measured before and after a 12-h incubation by liquid-chromatography-coupled mass spectrometry (LC–MS); type: ADME; parameters: dose 2 uM, timepoint 0 vs 12 hours; conditions: 2 µM
[16] = The drug is tested on Clostridium sporogenes strain: ATCC15579 for biotransformation. The drug concentrations were measured before and after a 12-h incubation by liquid-chromatography-coupled mass spectrometry (LC–MS); conditions: 2 µM
[17] = The drug is tested on Collinsella intestinalis strain: DSM13280 for biotransformation. The drug concentrations were measured before and after a 12-h incubation by liquid-chromatography-coupled mass spectrometry (LC–MS); conditions: 2 µM
[18] = enterocloster bolteae, 12 h, 2 µM
Description: The drug is tested on Clostridium bolteae strain: ATCCBAA-613 for biotransformation. The drug concentrations were measured before and after a 12-h incubation by liquid-chromatography-coupled mass spectrometry (LC–MS)

[19] = The drug is tested on Alistipes indistinctus strain: DSM22520 for biotransformation. The drug concentrations were measured before and after a 12-h incubation by liquid-chromatography-coupled mass spectrometry (LC–MS); conditions: 2 µM

SMILES | Bacterial Biotransformation [1] | Bacterial Biotransformation [2] | Bacterial Biotransformation [3] | Bacterial Biotransformation [4] | Bacterial Biotransformation [5] | Bacterial Biotransformation [6] | Bacterial Biotransformation [7] | Bacterial Biotransformation [8] | Bacterial Biotransformation [9] | Bacterial Biotransformation [10] | Bacterial Biotransformation [11] | Bacterial Biotransformation [12] | Bacterial Biotransformation [13] | Bacterial Biotransformation [14] | Bacterial Biotransformation [15] | Bacterial Biotransformation [16] | Bacterial Biotransformation [17] | Bacterial Biotransformation [18] | Bacterial Biotransformation [19]
C[C@@H](CO)NC(=O)[C@@H]1C=C2c3cccc4[nH]cc(c34)C[C@H]2N(C)C1.O=C(O)/C=C\C(=O)O [ERGONOVINE MALEATE] | Compound metabolized | Compound NOT metabolized | Compound NOT metabolized | Compound metabolized | Compound NOT metabolized | Compound NOT metabolized | Compound metabolized | Compound metabolized | Compound metabolized | Compound NOT metabolized | Compound NOT metabolized | Compound metabolized | Compound metabolized | Compound metabolized | Compound NOT metabolized |  |  |  | 
CCN(C)C(=O)Oc1cccc([C@H](C)N(C)C)c1.O=C(O)C(O)C(O)C(=O)O [RIVASTIGMINE TARTRATE] | Compound NOT metabolized | Compound NOT metabolized | Compound NOT metabolized | Compound NOT metabolized | Compound NOT metabolized | Compound NOT metabolized | Compound NOT metabolized | Compound NOT metabolized |  | Compound NOT metabolized | Compound NOT metabolized | Compound NOT metabolized | Compound NOT metabolized | Compound NOT metabolized | Compound NOT metabolized | Compound NOT metabolized | Compound NOT metabolized |  | 
O=c1n(CCCN2CCN(c3cccc(Cl)c3)CC2)nc2ccccn12 [TRAZODONE] | Compound NOT metabolized | Compound NOT metabolized | Compound NOT metabolized | Compound NOT metabolized | Compound NOT metabolized | Compound NOT metabolized | Compound NOT metabolized | Compound NOT metabolized | Compound NOT metabolized | Compound NOT metabolized |  | Compound NOT metabolized | Compound NOT metabolized | Compound NOT metabolized | Compound NOT metabolized | Compound NOT metabolized | Compound NOT metabolized | Compound NOT metabolized | 
CC(=O)CC(c1ccccc1)c1c(O)c2ccccc2oc1=O (configuration not stated) [WARFARIN] | Compound metabolized | Compound NOT metabolized | Compound NOT metabolized | Compound NOT metabolized | Compound NOT metabolized | Compound NOT metabolized | Compound NOT metabolized |  | Compound NOT metabolized | Compound NOT metabolized | Compound NOT metabolized |  | Compound NOT metabolized | Compound NOT metabolized | Compound NOT metabolized |  | Compound NOT metabolized | Compound NOT metabolized | 
CCCN(CCC)CCc1cccc2c1CC(=O)N2 [ROPINIROLE] | Compound NOT metabolized | Compound NOT metabolized | Compound NOT metabolized | Compound NOT metabolized | Compound NOT metabolized | Compound NOT metabolized | Compound NOT metabolized | Compound NOT metabolized | Compound NOT metabolized |  | Compound NOT metabolized | Compound NOT metabolized | Compound NOT metabolized |  | Compound NOT metabolized | Compound NOT metabolized | Compound NOT metabolized | Compound NOT metabolized | 
Cc1cn([C@H]2C[C@H](N=[N+]=[N-])[C@@H](CO)O2)c(=O)[nH]c1=O [ZIDOVUDINE] |  | Compound NOT metabolized | Compound NOT metabolized | Compound NOT metabolized | Compound NOT metabolized |  | Compound NOT metabolized | Compound NOT metabolized | Compound NOT metabolized | Compound NOT metabolized | Compound NOT metabolized | Compound metabolized | Compound metabolized | Compound metabolized | Compound NOT metabolized | Compound metabolized |  | Compound NOT metabolized | Compound NOT metabolized
Br.CN1CCC[C@@H]1Cc1c[nH]c2ccc(CCS(=O)(=O)c3ccccc3)cc12 [ELETRIPTAN HYDROBROMIDE] | Compound NOT metabolized | Compound NOT metabolized | Compound NOT metabolized | Compound NOT metabolized | Compound NOT metabolized | Compound NOT metabolized | Compound NOT metabolized | Compound NOT metabolized | Compound NOT metabolized |  | Compound NOT metabolized | Compound NOT metabolized | Compound NOT metabolized | Compound NOT metabolized | Compound NOT metabolized | Compound NOT metabolized | Compound NOT metabolized | Compound NOT metabolized | 
